Legend:
NK1 receptors = NK1 receptors (Homo sapiens, UniProt P25103); test: Pharmacological test of antagonistic activity against NK1 receptors in vitro; settings: test made by the present inventors
NK1 receptor = target: T1, NK1 receptor (Cavia porcellus, UniProt P30547); test: Inhibitory effect against increased vascular permeability induced by substance P; type: in vivo, guinea pig; settings: male Hartley guinea pigs; for ID50 (mg/kg, p.o.): oral administration 1 hour before SP (1 μg/kg i.v.), Evans blue leakage into primary bronchus; for Inhibitory rate (%) on oral administration at 3.3 mg/kg: 3.3 mg/kg p.o. 1 hour before SP, pigment leakage
T1 construct: increased vascular permeability induced by substance P (SP), an NK1 receptor agonist; from tissue; host or cells: living male Hartley guinea pig; pigment leakage at the primary bronchus
Procedure: Inhibitory Effect Against Increased Vascular Permeability
The inhibitory effect on increased vascular permeability induced by substance P (SP), an NK1 receptor agonist, was assessed based on the amount of pigment leakage as an index using guinea pigs (body weight: approx. 400 g, male Hartley guinea pigs).
A pigment (Evans blue: 40 mg/kg) was administered to the femoral vein of a guinea pig anesthetized with pentobarbital (30 mg/kg, i.p.) and immediately after that, SP (1 μg/kg) was intravenously injected to induce accentuation of vascular permeability. Fifteen minutes after the injection, the guinea pig was sacrificed under anesthesia with chloroform and the amount of the pigment leaked into the primary bronchus site was measured in accordance with Harada's method (J. Pharm. Pharmacol. 23, 218(1971)). A test substance was suspended in a 0.5% tragacanth suspension and orally administered to a guinea pig 1 hour before induction by SP. Its inhibitory action was determined by the ratio of the pigment leaked from the test-substance-administered group to that from the non-administered group. In Table 1, 50% inhibitory dose (ID50) and inhibitory rate in the case of oral administration at 3.3 mg/kg are shown.

NK2 receptor = target: T2, NK2 receptor (Cavia porcellus, UniProt Q64077); test: Inhibitory effect against bronchoconstriction induced with [Nle10]-NKA[4-10]; type: in vivo, guinea pig; settings: for ID50 (mg/kg, p.o.): male Hartley guinea pigs, oral administration one hour before [Nle10]-NKA[4-10] (4 μg/kg i.v.), AUC of airway pressure
T2 construct: bronchoconstriction induced with [Nle^10]-NKA[4-10], an NK2 receptor agonist; from tissue; host or cells: living male Hartley guinea pig; airway pressure (Konzett-Roessler)
T2 sequence (Q64077 1-402): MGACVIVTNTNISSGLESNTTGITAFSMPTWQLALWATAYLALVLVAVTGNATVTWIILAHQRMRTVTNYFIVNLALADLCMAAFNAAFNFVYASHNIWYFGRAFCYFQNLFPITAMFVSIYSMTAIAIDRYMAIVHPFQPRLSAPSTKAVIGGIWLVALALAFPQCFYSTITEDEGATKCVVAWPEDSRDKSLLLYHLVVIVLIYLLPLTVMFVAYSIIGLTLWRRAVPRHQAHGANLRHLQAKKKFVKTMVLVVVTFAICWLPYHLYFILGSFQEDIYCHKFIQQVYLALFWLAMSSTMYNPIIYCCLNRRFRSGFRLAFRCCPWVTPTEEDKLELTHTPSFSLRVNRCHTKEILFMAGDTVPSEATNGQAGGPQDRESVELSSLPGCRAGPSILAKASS

T1 sequence (P30547 whole entry): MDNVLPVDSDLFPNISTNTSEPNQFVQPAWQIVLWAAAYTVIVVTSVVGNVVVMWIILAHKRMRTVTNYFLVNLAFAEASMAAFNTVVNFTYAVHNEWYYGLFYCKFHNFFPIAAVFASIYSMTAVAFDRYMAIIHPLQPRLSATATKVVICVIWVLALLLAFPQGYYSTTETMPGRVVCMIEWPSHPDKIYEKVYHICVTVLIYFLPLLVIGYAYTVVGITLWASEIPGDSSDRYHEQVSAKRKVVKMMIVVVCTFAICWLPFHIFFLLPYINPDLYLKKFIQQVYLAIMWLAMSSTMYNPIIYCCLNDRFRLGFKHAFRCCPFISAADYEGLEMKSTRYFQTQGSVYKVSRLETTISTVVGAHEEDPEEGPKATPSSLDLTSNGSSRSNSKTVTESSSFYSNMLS
Sequence of NK1 receptors (P25103 whole entry): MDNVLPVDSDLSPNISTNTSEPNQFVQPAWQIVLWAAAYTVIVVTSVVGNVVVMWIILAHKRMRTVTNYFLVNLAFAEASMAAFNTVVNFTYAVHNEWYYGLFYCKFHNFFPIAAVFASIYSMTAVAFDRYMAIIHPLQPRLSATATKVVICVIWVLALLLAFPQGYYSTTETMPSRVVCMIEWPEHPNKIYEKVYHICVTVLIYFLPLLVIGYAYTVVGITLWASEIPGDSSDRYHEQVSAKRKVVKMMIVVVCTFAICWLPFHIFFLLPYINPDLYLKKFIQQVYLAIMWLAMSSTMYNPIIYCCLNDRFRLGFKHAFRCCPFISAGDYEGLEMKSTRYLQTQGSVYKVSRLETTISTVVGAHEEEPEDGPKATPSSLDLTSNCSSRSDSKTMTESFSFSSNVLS

| Inhibitory rate (%) on oral administration at 3.3 mg/kg (NK1 receptor) [%] | ID50 (mg/kg, p.o.) (NK2 receptor) [mg/kg] | SMILES | antagonistic activity against NK1 receptors in vitro (NK1 receptors) | ID50 (mg/kg, p.o.) (NK1 receptor) | ED50 (NK2 receptor; guinea pig, guinea pigs, intravenous injection of test substance, read-out: ID50 (the source's name)) [mg/kg] |
| --- | --- | --- | --- | --- | --- |
| – | – | CN(C[C@@H](CCN1CCC2(CCc3ccccc32)CC1)c1ccc(Cl)c(Cl)c1)C(=O)c1ccccc1 [B] | markedly weak | – | – |
| – | – | Cc1cc(C)cc(C(=O)N(C)C[C@@H](CCN2CCC3(CC2)CN(S(C)(=O)=O)c2ccccc23)c2ccc(Cl)c(Cl)c2)c1 [Compound A, reference compound] | – | greater than 10 mg/kg | > 10 |
| 48.0 | 0.51 | COc1cc(C(=O)N2CCO[C@](CCN3CCC4(CC3)c3ccccc3C[S@@+]4[O-])(c3ccc(Cl)c(Cl)c3)C2)cc(OC)c1OC.Cl [Compound of Ex. 1, 1-{2-[(2R)-(3,4-Dichlorophenyl)-4-(3,4,5-trimethoxybenzoyl)morpholin-2-yl]ethyl}spiro[benzo(c)thiophene-1(3H),4′-piperidin]-(2S)-oxide hydrochloride] | – | 5.1 mg/kg | – |
| 46.8 | 0.54 | COc1cc(C(=O)N2CCOC(CCN3CCC4(CC3)c3ccccc3C[S+]4[O-])(c3ccc(Cl)c(Cl)c3)C2)cc(OC)c1OC.O=C(O)/C=C/C(=O)O [Compound of Ex. 2, 1-{2-[(2R)-(3,4-Dichlorophenyl)-4-(3,4,5-trimethoxybenzoyl)morpholin-2-yl]ethyl}spiro[benzo(c)thiophene-1(3H),4′-piperidin]-(2S)-oxide fumarate] | – | – | – |
